Series [1] relates to Herpes Simplex Virus Type I. Put plainly: Plaque reduction assay, herpes simplex virus (Vero cells). It counts as cell-based, herpes simplex virus type 1. Background: Plaque reduction counts the foci of infection that form in a cell layer.
For series [2], the system named is Vero cells. As to the kind of experiment: Plaque reduction assay, minimal toxic dose (Vero cells). It counts as cell-based. As for the experimental part:
In vitro antiviral activity of BU-4344V was assessed using the herpes simplex virus type 1 (KOS strain) - Vero cell and influenza virus type A (Victoria strain) - Madin Darby canine kidney (MDCK) cell systems by the dye-uptake assay method [Antiviral Research, 3, 223-234 (1986)]. The cell suspension (200 μl ), containing 2×10^4 cells, was inoculated to each well of 96-well microplates and cultured at 37° C. for 48-72 hours under humidified 5% CO2 -95% air environment. The growth medium in each well was replaced with 250 μl of fresh medium (Eagle MEM without serum) containing BU-4344V at various doses, and then 50 μl medium containing approximately 10×TCID50 of the viruses was added to each well. For cytotoxicity tests, the same set of wells, without the viruses, were prepared. After 72 hours of incubation, the degree of inhibition of the viral-induced cytopathic effect and the drug-induced cytotoxicity were determined. […] The antiviral activity of BU-4344V was also determined using a conventional plaque reduction assay method.

In series [3] the test system is herpes simplex virus type 1 (KOS strain). To be noted: 72 h.
Series [4] relates to Vero cells. To be noted: dye-uptake assay, Vero cells without viral infection, 72 hours.
The test system of series [5] is influenza virus type A (Victoria strain). As to the kind of experiment: Dye-uptake assay, inhibition of viral-induced cytopathic effect, influenza virus - MDCK cell system. The settings on record: MDCK cells, 72 hours. Type of series: cell-based. For orientation: Protection from cytopathic effect is a common read-out in antiviral testing.
The subject of another series is Influenza Virus Type A. Put plainly: Plaque reduction assay, influenza virus (MDCK cells). Type of series: cell-based.

Converted amounts (≈) assume the structure as drawn.

In turn, `Nc1nc2c(ncn2COCCO)c(=O)[nH]1` [Acyclovir, reference compound] had an ID50 in series [1] of 0.25 µg/mL (≈ 1.11 µM). Besides, the “MTD (Minimal Toxic Dose)” value in the series with Vero cells [2] is over 100 µg/mL. The “ID50 (concentration showing 50% inhibition of the cytopathic effect)” value in series [3] is 0.2 µg/mL. In addition, the “TD50 (concentration exhibiting 50% cytotoxicity)” value in the series on Vero cells [4] was over 100 µg/mL.

Regarding `NC(=O)c1ncn([C@@H]2O[C@H](CO)[C@@H](O)[C@H]2O)n1` [Ribavirin, reference compound], the “ID50 (concentration showing 50% inhibition of the cytopathic effect)” value in series [5] was 10 µg/mL. The compound further gave an ID50 with Influenza Virus Type A of 3.8 µg/mL (≈ 15.6 µM).
